Experimental data as given in US9359348B2, “Cyclopropyl imidazopyridine PDE10 inhibitors” (Merck Sharp & Dohme Corp., priority 2012, dated 2016).

target: human PDE10A2 (Homo sapiens (Human), UniProt Q9Y233); test: PDE10 fluorescence polarization (IMAP FP) inhibition assay; assay type: biochemical; settings: FAM-labeled cAMP 50 nM, room temperature
Procedure: The activity of the compounds in accordance with the present invention as PDE10 inhibitors may be readily determined without undue experimentation using a fluorescence polarization (FP) methodology that is well known in the art (Huang, W., et al., J. Biomol Screen, 2002, 7: 215).
In a typical experiment the PDE10 inhibitory activity of the compounds of the present invention was determined in accordance with the following experimental method. PDE10A2 was amplified from human fetal brain cDNA (Clontech, Mountain View, Calif.) using a forward primer corresponding to nucleotides 56-77 of human PDE10A2 (Accession No. AF127480, Genbank Identifier 4894716), containing a Kozak consensus sequence, and a reverse primer corresponding to nucleotides 2406-2413 of human PDE10A2 (Accession No. AF127480, Genbank Identifier 4894716). Amplification with Easy-A polymerase (Stratagene, La Jolla, Calif.) was 95° C. for 2 minutes followed by thirty three cycles of 95° C. for 40 seconds, 55° C. for 30 seconds, and 72° C. for 2 minutes 48 seconds. Final extension was 72° C. for 7 minutes. The PCR product was TA cloned into pcDNA3.2-TOPO (Invitrogen, Carlsbad, Calif.) according to standard protocol. AD293 cells with 70-80% confluency were transiently transfected with human PDE10A2/pcDNA3.2-TOPO using Lipofectamine 2000 according to manufacturer specifications (Invitrogen, Carlsbad, Calif.). Cells were harvested 48 hours post-transfection and lysed by sonication (setting 3, 10×5 sec pulses) in a buffer containing 20 mM HEPES, 1 mM EDTA and protease inhibitor cocktail (Roche). Lysate was collected by centrifugation at 75,000 xg for 20 minutes. Supernatant containing the cytoplasmic fraction was used for evaluation of PDE10A2 activity. The fluorescence polarization assay for cyclic nucleotide phosphodiesterases was performed using an IMAP® FP kit supplied by Molecular Devices, Sunnyvale, Calif. (product # R8139). IMAP® technology has been applied previously to phosphodiesterase assays (Huang, W., et al., J. Biomol Screen, 2002, 7: 215). Assays were performed at room temperature in 384-well microtiter plates with an incubation volume of 20.2 μL. Solutions of test compounds were prepared in DMSO and serially diluted with DMSO to yield 8 μL of each of 10 solutions differing by 3-fold in concentration, at 32 serial dilutions per plate. 100% inhibition is determined using a known PDE10 inhibitor, which can be any compound that is present at 5,000 times its Ki value in the assay described as follows, such as papaverine (see Siuciak, et al. Neuropharmacology (2006) 51:386-396; Becker, et al. Behav Brain Res (2008) 186(2):155-60; Threlfell, et al., J Pharmacol Exp Ther (2009) 328(3):785-795), 2-{4-[pyridin-4-yl-1-(2,2,2-trifluoroethyl)-1H-pyrazol-3-yl]phenoxymethyl}quinoline succinic acid or 2-[4-(1-methyl-4-pyridin-4-yl-1H-pyrazol-3-yl)-phenoxymethyl]quinoline succinic acid (see Schmidt, et al. J Pharmacol Exp Ther (2008) 325:681-690; Threlfell, et al., J Pharmacol Exp Ther (2009) 328(3): 785-795). 0% of inhibition is determined by using DMSO (1% final concentrations).
A Labcyte Echo 555 (Labcyte, Sunnyvale, Calif.) is used to dispense 200 nL from each well of the titration plate to the 384 well assay plate. A solution of enzyme (1/1600 dilution from aliquots; sufficient to produce 20% substrate conversion) and a separate solution of FAM-labeled cAMP PDE from Molecular Devices (product # R7506), at a final concentration of 50 nM are made in the assay buffer (10 mM Tris HCl, pH 7.2, 10 mM MgCl2, 0.05% NaN3 0.01% Tween-20, and 1 mM DTT). The enzyme and the substrate are then added to the assay plates in two consecutive additions of 10 μL, and then shaken to mix. The reaction is allowed to proceed at room temperature for 30 minutes. A binding solution is then made from the kit components, comprised of 80% Solution A, 20% Solution B and binding reagent at a volume of 1/600 the total binding solution. […]

human PDE10A2, sequence (Q9Y233 267-1055): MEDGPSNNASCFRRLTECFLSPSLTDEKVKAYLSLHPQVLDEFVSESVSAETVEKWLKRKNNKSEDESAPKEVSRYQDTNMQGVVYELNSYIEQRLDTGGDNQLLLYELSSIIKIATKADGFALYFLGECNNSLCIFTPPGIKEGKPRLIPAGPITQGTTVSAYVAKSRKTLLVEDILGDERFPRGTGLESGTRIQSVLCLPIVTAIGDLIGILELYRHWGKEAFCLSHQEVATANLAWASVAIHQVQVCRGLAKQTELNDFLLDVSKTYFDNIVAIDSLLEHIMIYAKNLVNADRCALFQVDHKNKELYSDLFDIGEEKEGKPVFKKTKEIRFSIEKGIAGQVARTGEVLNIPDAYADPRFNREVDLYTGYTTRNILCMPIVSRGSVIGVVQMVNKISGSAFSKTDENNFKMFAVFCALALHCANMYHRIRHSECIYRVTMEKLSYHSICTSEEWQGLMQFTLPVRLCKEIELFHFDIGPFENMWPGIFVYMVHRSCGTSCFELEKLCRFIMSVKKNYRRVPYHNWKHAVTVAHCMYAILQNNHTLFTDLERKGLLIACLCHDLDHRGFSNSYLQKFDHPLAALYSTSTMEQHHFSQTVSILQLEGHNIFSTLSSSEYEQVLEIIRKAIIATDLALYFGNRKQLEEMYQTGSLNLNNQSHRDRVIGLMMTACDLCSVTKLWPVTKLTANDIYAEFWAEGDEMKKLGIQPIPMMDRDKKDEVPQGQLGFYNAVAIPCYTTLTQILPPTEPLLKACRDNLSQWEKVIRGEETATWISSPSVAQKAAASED

| Ki | Structure (SMILES) |
| --- | --- |
| 8.3 nM | Cc1nc([C@@H]2C[C@H]2c2cn3c(C)cccc3n2)cc(-n2nc(C)nc2C)n1 (relative stereo) [Example 2, 2-((trans)-2-(6-(3,5-dimethyl-1H-1,2,4-triazol-1-yl)-2-methylpyrimidin-4-yl)cyclopropyl)-5-methylimidazo[1,2-a]pyridine] |
| 24 nM | Cc1ccc2nc([C@@H]3C[C@H]3c3cc(-n4nc(C)nc4C)nc(C)n3)cn2c1 (relative stereo) [Example 3, 2-((trans)-2-(6-(3,5-dimethyl-1H-1,2,4-triazol-1-yl)-2-methylpyrimidin-4-yl)cyclopropyl)-6-methylimidazo[1,2-a]pyridine] |
| 44 nM | Cc1ccn2cc([C@@H]3C[C@H]3c3cc(-n4nc(C)nc4C)nc(C)n3)nc2c1 (relative stereo) [Example 4, 2-((trans)-2-(6-(3,5-dimethyl-1H-1,2,4-triazol-1-yl)-2-methylpyrimidin-4-yl)cyclopropyl)-7-methylimidazo[1,2-a]pyridine] |
| > 75 nM | Cc1nc([C@@H]2C[C@H]2c2cn3cccc(C)c3n2)cc(-n2nc(C)nc2C)n1 (relative stereo) [Example 5, 2-((trans)-2-(6-(3,5-dimethyl-1H-1,2,4-triazol-1-yl)-2-methylpyrimidin-4-yl)cyclopropyl)-8-methylimidazo[1,2-a]pyridine] |
| > 75 nM | Cc1nc([C@@H]2C[C@H]2c2cn3cccc(F)c3n2)cc(-n2nc(C)nc2C)n1 (relative stereo) [Example 6, 2-((trans)-2-(6-(3,5-dimethyl-1H-1,2,4-triazol-1-yl)-2-methylpyrimidin-4-yl)cyclopropyl)-8-fluoroimidazo[1,2-a]pyridine] |
| 13 nM | Cc1nc([C@@H]2C[C@H]2c2cn3ccc(F)cc3n2)cc(-n2nc(C)nc2C)n1 (relative stereo) [Example 7, 2-((trans)-2-(6-(3,5-dimethyl-1H-1,2,4-triazol-1-yl)-2-methylpyrimidin-4-yl)cyclopropyl)-7-fluoroimidazo[1,2-a]pyridine] |
| 9 nM | Cc1nc([C@@H]2C[C@H]2c2nc3ccccn3c2I)cc(-n2nc(C)nc2C)n1 (relative stereo) [Example 8, 2-((trans)-2-(6-(3,5-dimethyl-1H-1,2,4-triazol-1-yl)-2-methylpyrimidin-4-yl)cyclopropyl)-3-iodoimidazo[1,2-a]pyridine] |
| 2.1 nM | Cc1nc([C@@H]2C[C@H]2c2nc3ccccn3c2C)cc(-n2nc(C)nc2C)n1 (relative stereo) [Example 9, 2-((trans)-2-(6-(3,5-dimethyl-1H-1,2,4-triazol-1-yl)-2-methylpyrimidin-4-yl)cyclopropyl)-3-methylimidazo[1,2-a]pyridine] |
| 3.8 nM | C=Cc1c([C@@H]2C[C@H]2c2cc(-n3nc(C)nc3C)nc(C)n2)nc2ccccn12 (relative stereo) [Example 10, 2-((trans)-2-(6-(3,5-dimethyl-1H-1,2,4-triazol-1-yl)-2-methylpyrimidin-4-yl)cyclopropyl)-3-vinylimidazo[1,2-a]pyridine] |
| > 75 nM | Cc1nc([C@@H]2C[C@H]2c2nc3ccccn3c2C#N)cc(-n2nc(C)nc2C)n1 (relative stereo) [Example 11, 2-((trans)-2-(6-(3,5-dimethyl-1H-1,2,4-triazol-1-yl)-2-methylpyrimidin-4-yl)cyclopropyl)imidazo[1,2-a]pyridine-3-carbonitrile] |
| 5.8 nM | Cc1nc([C@H]2C[C@@H]2c2cn3ccccc3n2)cc(-n2nc(C)nc2C)n1 (stereo in doubt) [Example 1, 2-((1S,2S)-2-(6-(3,5-dimethyl-1H-1,2,4-triazol-1-yl)-2-methylpyrimidin-4-yl)cyclopropyl)imidazo[1,2-a]pyridine] |
